In ChEMBL document CHEMBL1148184, “Gloiosiphones A and B, Novel Metabolites from the Red Marine Alga Gloiosiphonia verticillaris” (J Nat Prod, 1993):
Activity calls are given as the source filed them.

What was measured:
Type in all cases: functional, organism-based
[1] = system: Escherichia coli; assay: Antibacterial activity against Escherichia coli ATCC 11775
[2] = system: Bacillus subtilis; assay: Antibacterial activity against Bacillus subtilis ATCC 6081
[3] = system: Salmonella typhimurium; assay: Antibacterial activity against Salmonella Typhimurium ATCC 14028; details: Salmonella enterica subsp. enterica serovar Typhimurium
[4] = system: Staphylococcus aureus; assay: Antibacterial activity against Staphylococcus aureus ATCC 12600

Measured: Activity

COCC1(O)OCCC1=O (stereo not drawn)
inactive: [1] | [2] | [3] | [4]

COC[C@@]1(O)C(=O)CC[C@@]12CC(OC)=C(OC)C2=O
inactive: [1] | [2] | [3] | [4]
